Square brackets hold non-standard residues; d marks the D form. Ends that are not written are not given here. Peptide text beside a SMILES is read from it. AEEA = NCCOCCOCC(=O)O

The subject of test [1] is Pseudomonas aeruginosa ATCC® 27853™. It counts as cell-based. The procedure:
The three peptide compounds BCC01-5RMP (SEQ ID NO:21), BCC02-5RMP (SEQ ID NO:22), and BCC03-5RMP (SEQ ID NO:23) were assayed for in vitro bactericidal activity against Pseudomonas aeruginosa, Escherichia coli, Salmonella typhimurium, and Acinetobacter baumannii. […] The CFU remaining at the end of 60 to 180 minute incubation was determined, and the data plotted as a log reduction in CFU/ml.
Tables 4-6 show the results of various peptides and peptide compounds against P. aeruginosa and E. coli strains. Tables 4 and 5 show the results of an investigation of the effects of peptide or peptide compounds BCC03-5RMP (SEQ ID NO:23), BCC03-MP (SEQ ID NO:24) and BCC03-5R (SEQ ID NO:20) against P. aeruginosa ATCC® strain 27853™ and E. coli ATCC® strain 25922™ (American Type Culture Collection, Manassas, Va.). […] Table 6 compares the activity of several other compounds, including the “5R” versions of BCC01, i.e., SEQ ID NO:18 (which comprises SEQ ID NO:1 with five additional arginines), the “5R” version of BCC02 (i.e., SEQ ID NO:19, which comprises SEQ ID NO:2 with five additional arginines), and BCC03-5RMP (SEQ ID NO:23), and BCC03-MP (SEQ ID NO:24, i.e., without the five additional R residues). The data generally indicate the superiority of BCC03-5RMP (SEQ ID NO:23) against E. coli, and the superiority of the 5R or 5RMP versions of the peptide over the “AEEA only” peptide against P. aeruginosa.
(§1) For FIGS. 10-13, in vitro bactericidal assays were performed using a starting inoculum of 1×10^6 CFU/ml of the bacterial suspension. The CFU remaining at the end of the 60-180 minute incubation was determined, and the data was plotted as log reduction in CFU/ml.
(§2) In particular, each of the test peptides (CAP37 peptides 120-146WR, 120-146WH, and 95-122 (SEQ ID NOs: 30, 31, and 26, respectively)) was used at 25, 12.5, 6.25, and 3.12 μM. Gentamicin was used at 4 μg/ml. 1×10^6/ml Acinetobacter baumannii ATCC® BAA-747″ or Pseudomonas aeruginosa ATCC® 27853™ (American Type Culture Collection, Manassas, Va.) were incubated with the peptides, negative buffer control (tryptone saline), and positive control gentamicin at pH 5.5 or 7.2. A 60 minute incubation was used for Acinetobacter baumannii ATCC® BAA747™, while a 180 minute incubation was used for Pseudomonas aeruginosa ATCC® 27853™. 50 μl aliquots were plated out on agar plates and incubated overnight. Colony forming units were counted after overnight incubation and CFU/ml calculated.
For FIG. 14, 1×10^6/ml Pseudomonas aeruginosa ATCC® 27853™ were incubated with each of the test peptides (CAP37 peptides 120-146WR, 120-146WH, 120-146QR, 120-146QH, 120-146QR-5RMP, and 120-146QH-5RMP (SEQ ID NOs: 30, 31, 28, 29, 32, and 33, respectively)) at 150, 75, and 37.5 μg/ml, or negative buffer control (tryptone saline), for 180 minutes at pH 5.5. 50 μl aliquots were plated out on agar plates and incubated overnight. Colony forming units were counted after overnight incubation and CFU/ml calculated.

Test [2] concerns P. aeruginosa (ATCC® 27853™). In words: Pseudomonas keratitis model in the mouse eye. In kind it is in vivo. As for the experimental part:
A circular wound was created on the mouse cornea by removing the epithelium and infected with 10^5 colony forming units (CFU) of P. aeruginosa (ATCC® 27853™ (American Type Culture Collection, Manassas, Va.)). Infected wounds were treated with saline (0.9% sodium chloride, vehicle control) or saline containing indicated concentrations of peptide every 15 minutes for 2 hours, then every 30 minutes for 3 hours on the first day. Infected wounds were treated twice on the second day and once on the third day. Mice were killed at 48 hours post-infection, and CFU/eye were quantified. The means were plotted and are representative of 5 to 9 mice per group. Mann Whitney test was performed for each group as compared to the saline control group. *P=0.014.
A circular wound (2 mm) was created on the mouse cornea by removing the epithelium and infecting the wound with 10^5 CFU of P. aeruginosa (ATCC® 27853™ (American Type Culture Collection, Manassas, Va.)). Infected wounds were treated with saline or saline containing indicated concentrations of peptide every 15 minutes for 2 hours, then every 30 minutes for 3 hours on the first day. Infected wounds were treated twice on the second day and once on the third day. Mice were killed at 48 hours post-infection, and the colony forming units per eye (CFU/eye) were quantified. The means are plotted and are representative of 5 to 9 mice per group. Mann Whitney test was performed for each group as compared to the saline control group.
For FIGS. 15-17, in vivo bactericidal activity of the peptides was also investigated using the standard Pseudomonas keratitis model in the mouse eye (FIGS. 15-17). Peptides 120-146QR-5RMP (SEQ ID NO:32), 120-146WH (SEQ ID NO:31), and 120-146WR (SEQ ID NO: 30) were applied topically at doses of 2, 5, 10, and 20 mg/ml to the wounded cornea that had been infected with 10^5 CFU of Pseudomonas aeruginosa. The efficacies of the peptides were compared to treatment with the vehicle control. Mice were euthanized at 48 hours post infection, and the CFU/eye were quantified.

Test [3] has as its system Acinetobacter baumannii ATCC® BAA-747™. In words: In vitro bactericidal assay (CFU remaining, log reduction). In kind it is cell-based. To be noted: for reduction of CFU/ml: 60 minutes, highest peptide concentrations (25 μM). As for the experimental part:
The three peptide compounds BCC01-5RMP (SEQ ID NO:21), BCC02-5RMP (SEQ ID NO:22), and BCC03-5RMP (SEQ ID NO:23) were assayed for in vitro bactericidal activity against Pseudomonas aeruginosa, Escherichia coli, Salmonella typhimurium, and Acinetobacter baumannii. The starting inoculum for all experiments was 1×10^6 colony forming units (CFU)/ml. The CFU remaining at the end of 60 to 180 minute incubation was determined, and the data plotted as a log reduction in CFU/ml.
as §1, §2

Take `CC(C)C[C@H](NC(=O)[C@H](CCCNC(=N)N)NC(=O)CNC(=O)CNC(=O)[C@H](CO)NC(=O)[C@H](CCCNC(=N)N)NC(=O)[C@H](CCC(N)=O)NC(=O)[C@H](CO)NC(=O)CNC(=O)[C@H](Cc1c[nH]c2ccccc12)NC(=O)CNC(=O)[C@H](C)NC(=O)[C@@H](NC(=O)[C@H](CCC(N)=O)NC(=O)[C@H](CS)NC(=O)[C@H](CCCNC(=N)N)NC(=O)[C@@H](NC(=O)CNC(=O)[C@H](CCCNC(=N)N)NC(=O)[C@H](CCCNC(=N)N)NC(=O)[C@H](CCCNC(=N)N)NC(=O)[C@H](CCCNC(=N)N)NC(=O)COCCOCCNC(=O)COCCOCCN)[C@@H](C)O)C(C)C)C(=O)N[C@@H](CO)C(=O)N[C@@H](CCCNC(=N)N)C(=O)N[C@@H](Cc1ccccc1)C(=O)N1CCC[C@H]1C(=O)N[C@@H](CCCNC(=N)N)C(=O)N[C@@H](Cc1ccccc1)C(=O)N[C@H](C(=O)N[C@@H](CC(N)=O)C(=O)N[C@H](C(=O)N[C@@H](CCCNC(=N)N)C(=O)O)C(C)C)C(C)C` [120-146QR-5RMP] (H-[AEEA][AEEA]RRRRGTRCQVAGWGSQRSGGRLSRFPRFVNVR-OH): the “reduction in CFU (FIG. 14)” value in test [1] (pH 5.5, 180 minutes, 75 μg/ml) is approximately 6 log. In addition, in test [2] (10 and 20 mg/ml groups together), the “mice with no viable bacteria in the eye after treatment” value is on record as “Six of the 10”. For the same compound, in test [2] (topical, doses of 10 and 20 mg/ml), the “CFU/eye at 48 hours post infection vs saline” value is “significantly reduced the CFU/eye”.

Consider “GTRCQVAGWGSWRSGGRLSRFPRFVNV [Peptide 120-146WR]”, for which, in test [1] (120-146WR at 25 μM, gentamicin 4 μg/ml), the “activity against P. aeruginosa” value is “highly active”. Besides, the “reduction of CFU (FIG. 14)” value in test [1] (pH 5.5, 180 minutes, highest concentrations (150 μg/ml)) was found to be 6 logs. Further, the “reduction of CFU/ml” value in test [1] (pH 7.2, 180 minutes, highest concentrations of peptides (25 μM)) is listed as 6 logs; in test [3] (pH 5.5) it was approximately 4 logs; in test [3] (pH 7.2), approximately 5.5 logs. In addition, the “bactericidal activity against Pseudomonas aeruginosa” value in test [1] (pH 7.2, 180 minutes, peptides at 25 μM) is “as effective as the standard antibiotic gentamicin”. Moreover, the “activity against A. baumannii” value in test [3] (12.5 μM) and in test [3] (25 μM) was “highly active” throughout. Moreover, the “infection (CFU/eye) at 48 hours post infection vs saline” value in test [2] (topical, 5, 10, and 20 mg/ml) is on record as “significantly reduced infection”.
